Key:
[1] = tested on: HCT116 ARID1A−/− xenografts; experiment: In vivo efficacy, HCT116 ARID1A−/− subcutaneous xenografts; parameters: species or system mice
Description: FIG. 3. In vivo ARID1A/ATR synthetic lethality. A. Schematic of VX-970 therapy experiment in mice bearing established HCT116 ARID1A^+/+ and ARID1A^−/− xenografts. Cells were inoculated subcutaneously into nude mice and tumors allowed to establish for 10 days. Mice were then randomized to treatment regimens of either VX-970 (60 mg/kg, 4× weekly by oral gavage) or vehicle. Mice were then treated for a subsequent 40 days. Tumor volume was monitored twice weekly. B. Relative tumor volume plot from (A) showing efficacy of VX-970 and selectivity for ARID1A^−/− xenografts* p=0.024, ANOVA. C. Schematic of tumor incidence experiment in mice with non-established HCT116 ARID1A^+/+ and ARID1A^−/− xenografts. Mice were inoculated with cells as before, randomized and then treated with VX-970. VX-970 or vehicle treatment was initiated on the day of cell implantation. Tumor volume was monitored twice weekly and overall tumour incidence was assessed 40 days later. D. Bar chart of incidence 40 days after implantation of HCT116 ARID1A^+/+ and ARID1A^−/− cells. Each group contained 15 animals and fractions above bars indicate the number of animals in which a measurable xenograft formed. *p=0.027 Fisher's exact test. E and F. Tumor growth in experiment described in (C). *p=0.015 ANOVA. G. VX-970 dose response curves from TOV21G (ARID1A mutant) and RMG1 (ARID1A wildtype) cells. Cells were exposed to VX-970 for 5 days. […] PARP-1, cleaved PARP-1 (85 kDa fragment) and tubulin were detected by western blot. […] Caspase3/7 activity was assessed using Caspase-Glo and total cellular viability was estimated using CellTitre-Glo. Luminescence ratios for Caspase-Glo (i.e. apoptotic cells) and CellTitre-Glo (ie viable cells) was determined for each dose and normalized to DMSO treated samples. *Student's t-test, p<0.05. […]
In vivo efficacy studies were performed using HCT116 […], HCT116 ARID1A^−/− and TOV21G cells injected subcutaneously in the flank of female CD-1 Nude mice. […] Tumours were measured manually by calliper trice weekly and animals were sacrificed when tumours reached >15 mm in any direction.

[2] = tested on: ARID1A mutant vs ARID1A wild type tumor cell lines; experiment: Five-day VX-970 sensitivity (AUC) in a diverse tumour cell line panel; assay type: cell-based, human; settings: five days exposure, Student's t-test
Description: FIG. 2. In vitro ARID1A/ATR synthetic lethality. A. Chemical structure of VX-970. B. Western blot of ARID1A in human ARID1A isogenic HCT116 cells. C. Image of colonies in 6 well-plate clonogenic assay. HCT116 ARID1A isogenic (^+/+ and ^−/−) cell lines were exposed to increasing concentrations of the VE-821 (0, 0.1, 1 uM) and VX-970 (0, 0.01, 0.05 uM) for 14 days. D and E. Dose response clonogenic survival curve of HCT116 ARID1A isogenic (^+/+ and ^−/−) cell lines exposed to increasing concentrations of the VE-821 and VX-970 for 14 days. Error bars represent SD from triplicate experiments, ANOVA p-value of <0.0001. F. Area under curve (AUC) box whisker comparison plot for human tumor cell lines exposed to VX-970 for five days. ARID1A wild type tumor cell lines (n=15) were compared to ARID1A mutant cell lines (n=9). Student's t-test p=0.00594. G. Dose response clonogenic survival curve of mouse Arid1a isogenic ES cell lines. Experiment was performed as per (C). Error bars represent SD from triplicate experiments, ANOVA p value of <0.0001. H. Western blot of Arid1a protein expression in mouse ES Arid1a isogenic cells. […]
Short-term survival assays were performed in 384-well plates. […] Drug was added 24 h after seeding and cells were continuously exposed to the drug for five days, after which cell viability was estimated using CellTitre-Glo luminescence (Promega). […] Colonies were counted manually. […]

CNCc1ccc(-c2cc(-c3nc(-c4ccc(S(=O)(=O)C(C)C)cc4)cnc3N)on2)cc1 [VX-970, 5-[4-(Isopropylsulfonyl)phenyl]-3-(3-{4-[(methylamino)methyl]phenyl}-1,2-oxazol-5-yl)-2-pyrazinamine]
growth of established ARID1A−/− xenografts ([1]; 60 mg/kg, 4x weekly oral gavage, 40 days): significantly inhibited the growth
growth of ARID1A−/− tumours under continued treatment ([1]; non-established xenograft experiment, p=0.015 ANOVA): dramatically slowed the growth
frequency of ARID1A−/− tumour formation ([1]; treatment from day of cell implantation, incidence 40 days later, 15 animals per group): 27%
sensitivity of ARID1A mutant (n=9) vs non-mutant (n=15) tumour cell lines [2]: significantly more sensitive to VX-970
